“And” between values parts separate entries of the source, which are not always exact repeats. Equal values may be shown once.
Experiments:
[1] = target: Sialic acid-binding Ig-like lectin 9 (Homo sapiens, UniProt Q9Y336); experiment: Hs-Siglec9 ALPHAscreen SOP 20170721
Plasmodium falciparum = experiment: Calibr Malaria Delayed Death Assay SOP; assay type: functional, organism-based
[2] = test system: Mycobacterium tuberculosis; experiment: Cornell M. t heat shock assay; assay type: functional, organism-based; conditions: for IC50: Mycobacterium tuberculosis
Wolbachia pipientis = experiment: Anti-Wolbachia Cell-Based Screen; assay type: functional; conditions: for IC50: Wolbachia pipientis
[3] = target: T1, Coenzyme A biosynthesis bifunctional protein CoaBC (Mycobacterium tuberculosis (strain ATCC 25618 / H37Rv), UniProt P9WNZ1); experiment: Biomol Green assay for MtCoaBC inhibitor, OD650 read; assay type: functional
T1 sequence (P9WNZ1 whole entry): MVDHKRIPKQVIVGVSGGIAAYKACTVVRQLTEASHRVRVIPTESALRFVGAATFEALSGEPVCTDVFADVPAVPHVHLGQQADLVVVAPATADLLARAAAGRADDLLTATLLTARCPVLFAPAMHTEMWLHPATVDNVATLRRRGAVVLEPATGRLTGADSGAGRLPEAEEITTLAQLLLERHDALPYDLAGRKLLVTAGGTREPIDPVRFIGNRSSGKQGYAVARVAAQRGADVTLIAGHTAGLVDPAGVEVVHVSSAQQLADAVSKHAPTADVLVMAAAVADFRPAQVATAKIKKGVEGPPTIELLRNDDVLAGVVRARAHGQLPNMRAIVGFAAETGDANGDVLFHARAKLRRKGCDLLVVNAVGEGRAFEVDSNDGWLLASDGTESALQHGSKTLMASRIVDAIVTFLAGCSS

[4] = target: Polyketide synthase Pks13 (Mycobacterium tuberculosis (strain ATCC 25618 / H37Rv), UniProt I6X8D2); experiment: Mycobacterium tuberculosis Polyketide synthase 13 Thioesterase (PKS13); assay type: functional
Polyketide synthase Pks13, sequence (I6X8D2 whole entry): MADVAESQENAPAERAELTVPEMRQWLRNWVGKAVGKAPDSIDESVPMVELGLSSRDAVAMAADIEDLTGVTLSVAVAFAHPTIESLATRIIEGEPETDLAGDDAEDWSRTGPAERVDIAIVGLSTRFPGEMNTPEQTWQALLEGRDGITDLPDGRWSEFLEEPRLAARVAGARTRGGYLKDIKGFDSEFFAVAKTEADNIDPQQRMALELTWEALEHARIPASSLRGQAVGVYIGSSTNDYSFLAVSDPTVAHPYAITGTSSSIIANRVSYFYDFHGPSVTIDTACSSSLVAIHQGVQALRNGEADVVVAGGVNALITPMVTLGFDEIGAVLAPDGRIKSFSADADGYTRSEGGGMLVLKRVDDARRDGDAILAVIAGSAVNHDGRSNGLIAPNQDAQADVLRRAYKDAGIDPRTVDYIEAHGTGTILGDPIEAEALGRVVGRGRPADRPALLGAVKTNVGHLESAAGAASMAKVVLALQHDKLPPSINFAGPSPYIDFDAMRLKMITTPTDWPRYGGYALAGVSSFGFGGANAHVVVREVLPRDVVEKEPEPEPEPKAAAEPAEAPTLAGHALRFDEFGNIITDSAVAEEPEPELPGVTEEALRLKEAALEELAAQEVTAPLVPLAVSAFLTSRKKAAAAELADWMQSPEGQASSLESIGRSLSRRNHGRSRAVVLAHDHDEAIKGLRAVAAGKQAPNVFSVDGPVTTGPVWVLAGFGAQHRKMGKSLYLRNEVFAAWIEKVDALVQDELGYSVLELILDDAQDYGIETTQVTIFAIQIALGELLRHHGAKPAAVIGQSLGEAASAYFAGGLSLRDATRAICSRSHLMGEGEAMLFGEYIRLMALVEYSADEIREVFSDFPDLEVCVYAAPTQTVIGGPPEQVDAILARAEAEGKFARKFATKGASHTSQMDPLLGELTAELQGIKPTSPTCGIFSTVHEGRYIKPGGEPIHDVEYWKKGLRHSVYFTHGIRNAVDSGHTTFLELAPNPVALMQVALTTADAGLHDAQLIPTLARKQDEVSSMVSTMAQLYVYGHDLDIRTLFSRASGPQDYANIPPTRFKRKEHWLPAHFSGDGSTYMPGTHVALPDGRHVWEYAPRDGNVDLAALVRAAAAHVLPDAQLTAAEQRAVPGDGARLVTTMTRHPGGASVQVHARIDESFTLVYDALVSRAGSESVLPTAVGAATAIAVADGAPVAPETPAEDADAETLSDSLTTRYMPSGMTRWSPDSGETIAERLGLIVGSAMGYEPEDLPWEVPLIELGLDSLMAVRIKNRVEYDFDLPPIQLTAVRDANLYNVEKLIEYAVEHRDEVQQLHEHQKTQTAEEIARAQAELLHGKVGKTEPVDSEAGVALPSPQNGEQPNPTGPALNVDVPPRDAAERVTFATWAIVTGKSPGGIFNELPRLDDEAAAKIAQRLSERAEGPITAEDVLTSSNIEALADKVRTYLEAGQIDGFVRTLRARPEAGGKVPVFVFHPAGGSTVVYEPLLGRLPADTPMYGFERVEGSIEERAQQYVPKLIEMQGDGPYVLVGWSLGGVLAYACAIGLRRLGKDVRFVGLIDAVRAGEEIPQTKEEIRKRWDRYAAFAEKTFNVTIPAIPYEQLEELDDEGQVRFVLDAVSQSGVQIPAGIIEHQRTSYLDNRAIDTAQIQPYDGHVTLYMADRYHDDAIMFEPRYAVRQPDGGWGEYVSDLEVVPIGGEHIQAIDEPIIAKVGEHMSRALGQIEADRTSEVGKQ

Lysine--tRNA ligase = Lysine--tRNA ligase (Plasmodium falciparum (isolate 3D7), UniProt Q8IDJ8); experiment: Pf-KRS-1 (Lysyl-RNA Synthetase-1, KRS-1, cytosolic KRS) from Plasmodium falciparum. Inhibitor assay, 384 well plate, luminescence read.; assay type: functional
Lysine--tRNA ligase, sequence (Q8IDJ8 whole entry): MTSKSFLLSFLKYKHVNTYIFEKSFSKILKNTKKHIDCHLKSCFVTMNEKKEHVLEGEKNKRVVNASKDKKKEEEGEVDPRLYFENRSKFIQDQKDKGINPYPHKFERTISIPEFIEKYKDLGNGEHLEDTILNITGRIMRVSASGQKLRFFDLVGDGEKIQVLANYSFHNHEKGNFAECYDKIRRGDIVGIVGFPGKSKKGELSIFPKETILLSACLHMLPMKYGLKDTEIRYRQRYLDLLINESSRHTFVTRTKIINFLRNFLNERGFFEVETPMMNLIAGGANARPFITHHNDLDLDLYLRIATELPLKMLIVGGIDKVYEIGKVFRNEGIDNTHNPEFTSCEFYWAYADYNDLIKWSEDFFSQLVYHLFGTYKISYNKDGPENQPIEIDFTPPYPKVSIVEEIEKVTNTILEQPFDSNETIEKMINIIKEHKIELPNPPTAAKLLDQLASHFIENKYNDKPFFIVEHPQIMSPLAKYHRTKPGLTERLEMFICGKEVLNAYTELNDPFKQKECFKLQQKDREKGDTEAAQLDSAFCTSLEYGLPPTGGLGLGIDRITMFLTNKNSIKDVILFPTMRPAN

Histidine--tRNA ligase = target: T2, Histidine--tRNA ligase (Leishmania infantum, UniProt A4I591); experiment: Leishmania infantum Histidine tRNA synthetase (LdHisRS); assay type: functional
T2 sequence (A4I591 whole entry): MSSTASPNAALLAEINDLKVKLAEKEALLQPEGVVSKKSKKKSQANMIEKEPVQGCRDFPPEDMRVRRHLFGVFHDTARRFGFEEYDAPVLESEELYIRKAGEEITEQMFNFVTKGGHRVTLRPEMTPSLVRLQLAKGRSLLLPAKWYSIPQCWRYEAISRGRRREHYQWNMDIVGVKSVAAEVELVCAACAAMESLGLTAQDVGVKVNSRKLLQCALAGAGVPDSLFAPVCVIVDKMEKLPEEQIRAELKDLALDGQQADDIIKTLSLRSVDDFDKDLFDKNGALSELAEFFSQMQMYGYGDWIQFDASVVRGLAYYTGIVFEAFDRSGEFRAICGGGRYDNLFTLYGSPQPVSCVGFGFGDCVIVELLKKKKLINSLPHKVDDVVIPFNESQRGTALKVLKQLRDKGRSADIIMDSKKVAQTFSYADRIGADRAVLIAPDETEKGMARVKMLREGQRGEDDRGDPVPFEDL

[5] = microbe, parasite or virus in culture; conditions: Mycobacterium tuberculosis, 96 h, read-out: pIC50 (converted)
[6] = microbe, parasite or virus in culture; conditions: Mycobacterium tuberculosis, 72 h, read-out: pIC50 (converted)

Sialic acid-binding Ig-like lectin 9, sequence (Q9Y336 whole entry): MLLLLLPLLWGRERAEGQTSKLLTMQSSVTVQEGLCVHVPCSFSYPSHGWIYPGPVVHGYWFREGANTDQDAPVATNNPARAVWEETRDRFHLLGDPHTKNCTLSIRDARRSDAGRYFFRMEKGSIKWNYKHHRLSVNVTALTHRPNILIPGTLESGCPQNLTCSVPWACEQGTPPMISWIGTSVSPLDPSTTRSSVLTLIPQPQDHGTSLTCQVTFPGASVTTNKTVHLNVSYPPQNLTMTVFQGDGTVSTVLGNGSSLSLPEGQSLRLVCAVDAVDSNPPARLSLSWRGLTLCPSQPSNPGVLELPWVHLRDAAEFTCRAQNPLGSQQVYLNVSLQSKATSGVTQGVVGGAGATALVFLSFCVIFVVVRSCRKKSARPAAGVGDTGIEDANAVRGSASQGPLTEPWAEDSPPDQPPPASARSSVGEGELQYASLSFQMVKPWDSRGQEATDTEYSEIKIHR

SMILES | IC50 [1] | further results
CCn1c(C)cc(C(=O)N2CCC(NC(=O)c3ccc(C)o3)CC2)c1C | > 30.2 µM | –
CC(C)n1cnnc1CCNCc1cn(CCC(N)=O)c2ccccc12 | > 30.2 µM | –
O=C(NCC1(O)CCC1)c1cccc(-n2cccn2)c1 | > 30.2 µM | –
CCNC(=O)c1cc2n(n1)CCCO2 | > 30.2 µM | –
Cc1ccsc1C(=O)N1CCC(Nc2cccnc2)CC1 | 14.5 µM and > 30.2 µM | –
CCOC(=O)[C@@H]1[C@@H](OC)C(=O)N(C)C12CCN(C(=O)C(CC)CC)CC2 | > 30.2 µM | –
CC(C)CC1(C(=O)NCCc2nncn2C2CC2)CCC1 | > 30.2 µM | –
O=C(c1cscn1)N1CCO[C@H]2[C@@H](Oc3ccccn3)CC[C@@H]21 | > 30.2 µM | –
c1cc2occc2c(N2CCCC(c3nncn3C3CC3)C2)n1 (stereo not drawn) | > 30.2 µM | –
Cc1nc(COC[C@]23COC[C@H]2CN(Cc2ccoc2)C3)cs1 | > 30.2 µM | –
CN(C)C(=O)COC[C@]12COC[C@H]1CN(Cc1ccoc1)C2 | > 30.2 µM | –
Cc1cccc(CN2C[C@@H]3COC[C@]3(COCC(=O)N(C)C)C2)n1 | > 30.2 µM | –
CCOC(=O)[C@@H]1[C@@H](O)C(=O)N(C)C12CCN(C(=O)c1ccco1)CC2 | > 30.2 µM | –
CCC(=O)N1CCC2(CC1)COc1ccccc1S(=O)(=O)N(C)C2 | > 30.2 µM | –
O=C(NCCc1nncn1C1CC1)C1SCCc2ccccc21 (stereo not drawn) | > 30.2 µM | –
O=C(NCc1nc2ccccc2[nH]1)c1cc2n(n1)CCCO2 | > 30.2 µM | –
Cc1ncsc1CCC(=O)NCc1csc(N2CCCC2)n1 | > 30.2 µM | –
O=C(NCCc1nncn1C1CC1)C1(Cc2ccccc2)CCC1 | > 30.2 µM | –
Cc1cccc(CN2CCCC2c2cccc(Nc3nccs3)n2)c1 (stereo not drawn) | – | pIC50 (Plasmodium falciparum): 5.988; IC50 (Plasmodium falciparum; Plasmodium falciparum): 1.01 µM; pIC50 [2]: 5.755; IC50 [2]: 2.41 µM; pIC50 (Wolbachia pipientis): 5.856; IC50 (Wolbachia pipientis): 1.87 µM
O=C(NCCc1nncn1C1CC1)c1cnn(Cc2ccccc2)c1 | > 30.2 µM | –
CCOC(=O)[C@H]1[C@@H](O)C(=O)N(C)C12CCN(C(=O)CC(C)(C)C)CC2 | > 30.2 µM | –
CNC(=O)C1CCN(c2nc3nc[nH]c(=O)c3s2)CC1 | > 30.2 µM | –
Cc1cc(C(=O)N2CC[C@](C)(O)[C@H](C)C2)c(C)n1C | > 30.2 µM | –
CC(C)NC(=O)C1CCN(c2nc3nc[nH]c(=O)c3s2)CC1 | > 30.2 µM | –
CC(C)n1cnnc1C1CCCN(C(=O)COCc2ccccc2)C1 (stereo not drawn) | > 30.2 µM | –
Cc1occc1C(=O)N1C[C@H](Oc2ccccn2)[C@H]2OCCC[C@H]21 | > 30.2 µM | –
CCOC(=O)[C@H]1[C@@H](O)C(=O)N(C)C12CCN(C(=O)C(CC)CC)CC2 | > 30.2 µM | –

SMILES | IC50 [1] | further results
CCc1nc(C2CCCN(c3ncccn3)C2)no1 (stereo not drawn) | > 30.2 µM | –
CCn1ncc2c1C(COC)CN(Cc1nccs1)C2 (stereo not drawn) | > 30.2 µM | –
CCn1ncnc1C1CC(=O)NCc2nc(N3CCCC3)sc21 (stereo not drawn) | > 30.2 µM | –
NC(=O)c1csc(N2C[C@@H](CN3CCC(O)CC3)[C@@H](CO)C2)n1 | > 30.2 µM | –
CCc1cc(=O)[nH]c(NC2CCN(S(=O)(=O)c3ccccc3)CC2)n1 | – | IC50 [3]: > 30.2 µM; IC50 [2]: > 100 µM
Nc1nccc(N2C[C@@H](CN3CCCCC3)[C@@H](CO)C2)n1 | > 30.2 µM | –
N#Cc1ccc2c(c1)CN(C(=O)C1CC=CC1)C2c1cnco1 (stereo not drawn) | > 30.2 µM | –
CC(=O)N1Cc2ccnn2CC(C(=O)NCc2cccnc2)C1 (stereo not drawn) | > 30.2 µM | –
c1csc(CN2Cc3nccn3CC(Cn3cncn3)C2)n1 (stereo not drawn) | > 30.2 µM | –
NC(=O)c1csc(N2C[C@@H](CN3CCOCC3)[C@@H](CO)C2)n1 | > 30.2 µM | –
CC(C)CCNc1nc(C(=O)NC2CC2)cs1 | > 30.2 µM | –
CS(=O)(=O)N1CCCC1c1cccc(Nc2nccs2)n1 (stereo not drawn) | – | IC50 [2]: > 100 µM; pIC50 (Wolbachia pipientis): 5.083; IC50 (Wolbachia pipientis): 9.08 µM
CCc1nc(C2CCCN(c3nccc(C)n3)C2)no1 (stereo not drawn) | > 30.2 µM | –
COc1ccc(C(C)NCc2ccnn2C)cc1Cn1cccn1 (stereo not drawn) | > 30.2 µM | –
Cc1ccnc(NC(=O)c2c(C)oc(C)c2C)c1 | > 30.2 µM | –
CCN(CC)S(=O)(=O)N1CCCC1c1cccc(Nc2ncc(C)s2)n1 (stereo not drawn) | – | IC50 [2]: > 100 µM; pIC50 (Wolbachia pipientis): 5.165; IC50 (Wolbachia pipientis): 8.99 µM
CCn1ncc2c1C(COC)CN(Cc1ccsc1)C2 (stereo not drawn) | > 30.2 µM | –
CCc1nc(C2CCCN(c3ncc(Br)cn3)C2)no1 (stereo not drawn) | > 30.2 µM | –
CCNC(=O)c1nnn(Cc2ccccc2)c1OC | > 30.2 µM | –
CCOC(=O)CNC(=O)c1cc2n(n1)CCCO2 | > 30.2 µM | –
COCc1cc(N2CCN(C3CCCCC3)CC2)n2nccc2n1 | > 30.2 µM | –
Cc1cc(C(=O)N2CCNC(=O)CC2)c(C)n1CC(F)(F)F | > 30.2 µM | –
Cc1cc(S(=O)(=O)N(CCO)C2CC2)ccc1F | > 30.2 µM | –
CC(C)n1cnnc1C1CCCN(S(=O)(=O)CC2CCCC2)C1 (stereo not drawn) | > 30.2 µM | –
Cc1cc(CNC(=O)c2ccno2)c(C)o1 | > 30.2 µM | –
c1cnc(N2CCC3(CCCN(CC4CC4)C3)CC2)nc1 | > 30.2 µM | –
CCOC(=O)[C@@H]1[C@@H](O)C(=O)N(C)C12CCN(C(=O)OC)CC2 | > 30.2 µM | –

SMILES | IC50 [1] | further results
CC(=O)NCCCSC1CCN(c2c(F)cccc2F)C1=O (stereo not drawn) | > 30.2 µM | –
Cc1occc1C(=O)N1CCO[C@H]2[C@@H](Oc3ccccn3)CC[C@@H]21 | > 30.2 µM | –
CN1Cc2ccccc2NC(=O)C12CCNC2 (stereo not drawn) | > 30.2 µM | –
COC(=O)C(O)C1CCN(CCc2ccc(C)cc2)CC1 (stereo not drawn) | > 30.2 µM | –
c1cnc(N2CCC3(CCN(CC4CCOCC4)CC3)C2)nc1 | > 30.2 µM | –
COCCNC(=O)c1nnn(Cc2ccccc2)c1OC | > 30.2 µM | –
Cc1oc(C)c(C(=O)Nc2ccccn2)c1C | > 30.2 µM | –
CCN(CC)C(=O)c1nnn(Cc2ccccc2)c1OC | > 30.2 µM | –
CN(C)CC(=O)N1CCC2(CC1)COc1ccccc1S(=O)(=O)N(C)C2 | > 30.2 µM | –
COc1cc(C)sc1C(=O)N1CC(c2cccnc2)C1 | > 30.2 µM | –
CCOC(=O)[C@H]1[C@@H](O)C(=O)N(C)C12CCN(S(=O)(=O)CC)CC2 | > 30.2 µM | –
Cc1occc1C(=O)N1CCO[C@H]2[C@H](OCc3ccccn3)CC[C@@H]21 | > 30.2 µM | –
O=C(CN1CCOC(CNc2cccnn2)C1)NCc1cccs1 (stereo not drawn) | – | IC50 [2]: > 100 µM; IC50 (Wolbachia pipientis): > 10 µM
Cc1cc(N2CCCC(c3nncn3C3CC3)C2)ncn1 (stereo not drawn) | > 30.2 µM | –
CC(C)N(C)CC(=O)NCc1ccccc1N1CCN(C)CC1 | > 30.2 µM | –
CC(C)CCN1CCC2(CC1)NCc1ccccc1NC2=O | > 30.2 µM | –
Cc1cc(CN2C[C@@H]3COC[C@]3(COCC(=O)N(C)C)C2)no1 | > 30.2 µM | –
CN(C)C(=O)CN1CCC2(CC1)COc1ccccc1S(=O)(=O)N(C)C2 | > 30.2 µM | –
c1ccc2oc(CCCN3CCCCC3Cn3cncn3)nc2c1 (stereo not drawn) | – | IC50 [4]: > 100 µM; IC50 [2]: > 100 µM
c1ccc([C@@H]2CN(Cc3ccncc3)C[C@H]2c2cc[nH]n2)cc1 | > 30.2 µM | –
CC(Cn1cccn1)NCc1csc(Cc2ccccc2)n1 (stereo not drawn) | – | IC50 [3]: > 30.2 µM; IC50 [2]: 12.7 µM
COc1ccc(-n2cc(CCO)cn2)cc1C | – | IC50 [3]: > 30.2 µM; IC50 (Lysine--tRNA ligase): > 50.1 µM; IC50 (Histidine--tRNA ligase): 17.7 µM and 11.1 µM; IC50 [2]: 41.4 µM
Cc1ccccc1CN1CCCC1c1cccc(Nc2nccs2)n1 (stereo not drawn) | – | IC50 [3]: > 30.2 µM; pIC50 [2]: 5.632; IC50 [2]: 1.93 µM
CC(C)C(NC(=O)c1cnc(N2CCOCC2)nc1)c1cccs1 (stereo not drawn) | – | IC50 [3]: > 30.2 µM; IC50 [2]: 48.2 µM; IC50 [5]: 48.9 µM; IC50 [6]: 44.9 µM
Cc1cnc(Nc2cccc(C3CCCN3Cc3cn(C)nc3C)n2)s1 (stereo not drawn) | – | IC50 [3]: > 30.2 µM; pIC50 [2]: 5.045 and 4.742; pIC50 (Wolbachia pipientis): 5.174; IC50 (Wolbachia pipientis): 5.37 µM
c1ccc(CCN2CCCC2c2cccc(Nc3nccs3)n2)cc1 (stereo not drawn) | – | IC50 [3]: > 30.2 µM; pIC50 [2]: 4.565; IC50 [2]: 38.9 µM; pIC50 (Wolbachia pipientis): 5.678; IC50 (Wolbachia pipientis): 1.09 µM
